Assay results reported in US9511019B2, “Pharmaceutical compositions for treating IBD” (NORDIC PHARMA, priority 2009, dated 2016).

System: TNBS colitis
Assay: TNBS colitis in mice, macroscopic lesions by Wallace criteria
Format: in vivo, C57b16 mice
Settings: for Wallace score (macroscopic lesions, scale 0 to 10): TNBS colitic mice, daily intrarectal administration from 3 days before to 4 days after induction, 5-ASA 0.5 mg, PMSB 2.34 mg/kg/day, untreated control 3.4; for action percentage in comparison to the Wallace score of untreated control: Wallace score 3.4 = 0% action, score 0 = 100% action
Method: Induction of TNBS Colitis and Evaluation of Macroscopic Lesions in the Colitis after Administration of 5-ASA, PMSB, and Synergistic Combination of 5-ASA and PMSB.
Animal experiments were performed in accredited establishments according to governmental guidelines.
Colitis induction was conducted on C57b16 mice aged of 6 weeks old. They were anesthetized for 90-120 minutes before they received intrarectal administration of TNBS (trinitrobenzene sulphonic acid) (40 μl, 150 mg/kg) dissolved in a 1:1 mixture of 0.9% NaCl with 100% ethanol. Control mice received a 1:1 mixture of 0.9% NaCl with 100% ethanol or a saline solution using the same technique. Animals were sacrificed 4 days after TNBS administration. The anti-inflammatory effect of 5-ASA and steroid was evaluated by daily administration of these compounds by intrarectal route in a final volume of 50 μl, starting 3 days before the colitis induction and during all the experiment (4 days after colitis induction). Dosage amount of 5-ASA was 0.5 mg (50 μl of 1 g/100 ml stock), 65 mM and the dosage amount of PMSB was 2.34 mg/kg/day.
The macroscopic assessments of colitis were performed blindly by two investigators. The colon of each mouse was examined under a dissecting microscope (magnification, ×5), to evaluate the macroscopic lesions according to the Wallace criteria. The score rates macroscopic lesions on a scale of from 0 to 10 based on the features reflecting inflammation, such as hyperaemia, thickening of the bowel, and extent of ulceration. The Wallace scale is defined as follows. A score of 0 represents an absence of inflammation, a score of 1, a hyperaemia without ulcerations, a score of 2 a hyperaemia with a thickening of the mucosa without ulcerations, a score of 3, one ulceration without thickening of the colonic wall, a score of 4, two or more of ulcerative or inflammatory sites, a score of 5, two or more ulcerative and inflammatory sites with an extent of more than 1 cm, and for a score of from 6 to 10, an ulcerative or inflammatory site of growing size of from 2 to 6 cm.
A score of Wallace of 3.4 thus indicates an action of 0% and a score of 0, (no lesion) indicates 100% action. […] The action that the active ingredients would be expected to have in combination was calculated according to the Colby formula, and a comparison in the actions was then observed.
The Colby formula is E=X+Y−(XxY)/100, wherein E is the expected degree of action, expressed in %, when the active ingredients 5-ASA and prednisolone PMSB are used in combination. […] It is the degree of action converted from the Wallace score obtained for the A group. […] It is the degree of action converted from the Wallace score obtained for the P group.

`Nc1ccc(O)c(C(=O)O)c1` [Formulation 5-ASA, 5-aminosalicylic acid] was tested, and the “Wallace score (macroscopic lesions, scale 0 to 10)” value was 1.25 and the “action percentage in comparison to the Wallace score of untreated control” value was 63%.
For `C[C@]12C=CC(=O)C=C1CC[C@@H]1[C@@H]2[C@@H](O)C[C@@]2(C)[C@H]1CC[C@]2(O)C(=O)COC(=O)c1cccc(S(=O)(=O)O)c1` [PMSB, prednisolone metasulfobenzoate], the “Wallace score (macroscopic lesions, scale 0 to 10)” value was 1.83 and the “action percentage in comparison to the Wallace score of untreated control” value was 46%.
